Legend:
PD patients = conditions: intravenous (IV); cited from earlier work
[1] = tested on: mouse model of severe dopamine depletion; assay: Superiority model; format: in vivo; conditions: mice
Excerpt: Both Apomorphine and L-DOPA stimulate D1 and D2-like dopamine receptors.

Row | SMILES | antiparkinson efficacy (PD patients) | reversal of motility deficits / restoration of locomotion [1]
1 | CCCc1cc2c(s1)CN[C@@H]1CCc3cc(OC(C)=O)c(OC(C)=O)cc3[C@@H]21 [Adrogolide] | comparable to that of L-DOPA | 
2 | CN1CCc2cccc3c2[C@H]1Cc1ccc(O)c(O)c1-3 [Apomorphine] |  | able to reverse motility deficits
3 | N[C@@H](Cc1ccc(O)c(O)c1)C(=O)O [L-DOPA, (levo)-3,4-dihydroxy phenylalanine] |  | able to reverse motility deficits
